Results as given in article PMC8641298 (ACS infectious diseases, 2020).

Columns and labels:
S. mansoni somules = experiment: In vitro phenotypic screen of S. mansoni somules; assay type: cell-based, Schistosoma mansoni
S. mansoni adults = experiment: In vitro phenotypic screen of S. mansoni adults; assay type: cell-based, Schistosoma mansoni; details: for Phenotypic descriptors, adults 5 h / Phenotypic descriptors, adults 24 h / Phenotypic descriptors, adults 48 h: assays performed at 10 μM (footnote d)
HeLa cytotoxicity = assay type: cell-based; details: human, HeLa cells
[1] = system: acetylated α-tubulin in HEK293 cells; experiment: HEK293 MT-stabilization assay; assay type: cell-based; details: 4 h
HEK293 cytotoxicity = assay type: cell-based; details: human, HEK293 cells (method text: HEK 293T)
adult S. mansoni = experiment: WormAssay, average adult worm motility; assay type: cell-based, Schistosoma mansoni; details: 5 h; for WormAssay (average adult worm movement ± SD): DMSO control 104.1 ± 24.4; for EC50: Schistosoma mansoni, read-out: EC50 of paralysis measured by WormAssay
[2] = assays performed at 10 μM (footnote d)

SMILES | Phenotypic descriptors, somules (1 μM) 24 h (S. mansoni somules) | Phenotypic descriptors, somules (1 μM) 48 h (S. mansoni somules) | Phenotypic descriptors, somules (10 μM) 24 h (S. mansoni somules) | Phenotypic descriptors, somules (10 μM) 48 h (S. mansoni somules) | Phenotypic descriptors, adults (5 μM) 5 h (S. mansoni adults) | Phenotypic descriptors, adults (5 μM) 24 h (S. mansoni adults) | Phenotypic descriptors, adults (5 μM) 48 h (S. mansoni adults) | CC50 at 48 h (HeLa cytotoxicity) [nM] | Fold-change in acetylated α-tubulin ([1]; 1 μM) | CC50 at 48 h (HEK293 cytotoxicity) [nM] | WormAssay (average adult worm movement ± SD) (adult S. mansoni; 5 μM) | Phenotypic descriptors, adults 5 h (S. mansoni adults) | Phenotypic descriptors, adults 24 h (S. mansoni adults) | Phenotypic descriptors, adults 48 h (S. mansoni adults) | Fold-change in acetylated α-tubulin (significance) ([1]; either 1 or 10 μM) | WormAssay (average adult worm movement ± SD) (adult S. mansoni; [2]) | EC50 (adult S. mansoni) [nM] | Fold-change in acetylated α-tubulin ([1]; 10 μM)
CC1(CNc2nc(-c3cnccn3)nc(Cl)c2-c2c(F)cc(F)cc2F)N=N1 [Compound 22, 6-chloro-N-((3-methyl-3H-diazirin-3-yl)methyl)-2-(pyrazin-2-yl)-5-(2,4,6-trifluorophenyl)-pyrimidin-4-amine] | R, deg | R, deg | R, deg | R, deg | N | N | Unc | 40 ± 12 | 2.68 ± 0.04 (1 μM) fold | 50 ± 10 | 131.4 ± 27.4 | – | – | – | – | – | – | –
C[C@H](Nc1nc(-c2cccs2)ncc1-c1c(F)cc(F)cc1F)C(F)(F)F [Compound 26, (S)-2-(thiophen-2-yl)-5-(2,4,6-trifluorophenyl)-N-(1,1,1-trifluoropropan-2-yl)pyrimidin-4-amine] | R, S | R | R, S | R, S | – | – | – | > 100000 | – | > 50000 | – | S^d | Unc, on sides^d | S, dark, on sides^d | NS^e | 11.0 ± 14.7^d | – | –
C[C@H](Nc1nc(-c2nccs2)nc(Cl)c1-c1c(F)cc(F)cc1F)C(F)(F)F [Compound 23, (S)-6-chloro-2-(thiazol-2-yl)-5-(2,4,6-trifluorophenyl)-N-(1,1,1-trifluoropropan-2-yl)pyrimidin-4-amine] | Deg, unc | Deg, unc | Deg, unc | Deg, unc | – | – | – | 6 ± 1 | – | 8 ± 2 | – | Unc, dark^d | Unc, dark^d | Unc, dark^d | – | 62.1 ± 26.4^d | – | –
CC(C)[C@H](C)Nc1nc(-c2cccs2)nc(Cl)c1-c1c(F)cc(F)cc1F [Compound 29, (S)-6-chloro-N-(3-methylbutan-2-yl)-2-(thiophen-2-yl)-5-(2,4,6-trifluorophenyl)pyrimidin-4-amine] | R, S | R, S | R, I | R, I | I, on sides | I, on sides | I, on sides | 8780 ± 1390 | – | 29100 | 5.0 ± 11.5 | – | – | – | – | – | ~1000 | –
C[C@H](Nc1nc(-c2cccs2)nc(Cl)c1-c1c(F)cc(F)cc1F)C(F)(F)F [Compound 25, (S)-6-chloro-2-(thiophen-2-yl)-5-(2,4,6-trifluorophenyl)-N-(1,1,1-trifluoropropan-2-yl)pyrimidin-4-amine] | R, S | R, S | rounding and immobility and R, I | R, I, | I, on sides | I, on sides | I, on sides | 1660 ± 612 | – | 1270 ± 106 | 5.5 ± 9.8 | – | – | – | – | – | ~1000 | 3.0 ± 0.6 (10 μM) fold
C[C@H](Nc1nc(-c2ccc3ccccc3n2)nc(Cl)c1-c1c(F)cc(F)cc1F)C(F)(F)F [Compound 21, (S)-6-chloro-2-(quinolin-2-yl)-5-(2,4,6-trifluorophenyl)-N-(1,1,1-trifluoropropan-2-yl)pyrimidin-4-amine] | N | N | R, deg | R, deg | N | N | S, on sides | – | 1.95 ± 0.2 (1 μM) fold | – | 75.3 ± 18.9 | – | – | – | – | – | – | –
C[C@H](Nc1nc(-c2ccco2)nc(Cl)c1-c1c(F)cc(F)cc1F)C(F)(F)F [Compound 24, (S)-6-chloro-2-(furan-2-yl)-5-(2,4,6-trifluorophenyl)-N-(1,1,1-trifluoropropan-2-yl)pyrimidin-4-amine] | N | N | N | Deg, unc | – | – | – | – | – | – | – | S^d | Unc, on sides^d | S, dark, on sides^d | – | 56.0 ± 21.5^d | – | 2.7 ± 0.2 (10 μM) fold
CC(C)[C@@H](C)Nc1nc(-c2cccs2)nc(Cl)c1-c1c(F)cc(F)cc1F [Compound 28, (R)-6-chloro-N-(3-methylbutan-2-yl)-2-(thiophen-2-yl)-5-(2,4,6-trifluorophenyl)pyrimidin-4-amine] | R, I | R, I | R, I | R, I | I, on sides | I, on sides | I, on sides | 17400 ± 2000 | – | 26800 | 2.9 ± 8.8 | – | – | – | – | – | ~1000 | –
